Each molecule was assayed against T1, Sodium/iodide cotransporter (Rattus norvegicus, UniProt Q63008) (assay: Inhibition of sodium iodide symporter in rat FRTL5 cells assessed as decrease in [125I]-sodium iodide uptake after 60 mins by scintillation counting method).
T1 sequence (Q63008 whole entry): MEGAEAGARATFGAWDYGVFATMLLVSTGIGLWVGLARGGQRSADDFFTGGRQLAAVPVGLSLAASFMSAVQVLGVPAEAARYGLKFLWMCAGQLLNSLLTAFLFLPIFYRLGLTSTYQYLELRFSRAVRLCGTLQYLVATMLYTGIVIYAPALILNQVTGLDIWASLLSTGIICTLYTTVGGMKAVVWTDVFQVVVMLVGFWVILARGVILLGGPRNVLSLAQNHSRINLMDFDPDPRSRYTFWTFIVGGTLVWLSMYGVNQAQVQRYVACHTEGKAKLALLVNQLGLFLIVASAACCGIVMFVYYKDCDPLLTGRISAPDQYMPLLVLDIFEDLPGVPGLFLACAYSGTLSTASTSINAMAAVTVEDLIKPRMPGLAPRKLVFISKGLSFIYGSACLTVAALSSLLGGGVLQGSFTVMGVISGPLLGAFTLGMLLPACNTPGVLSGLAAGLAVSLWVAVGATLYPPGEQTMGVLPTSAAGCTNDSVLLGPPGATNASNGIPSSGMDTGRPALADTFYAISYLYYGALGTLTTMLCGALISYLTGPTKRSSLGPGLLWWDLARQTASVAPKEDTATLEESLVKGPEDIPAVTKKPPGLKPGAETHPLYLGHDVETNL
Type: cell-based, FRTL-5

Compound	IC50 [nM]
Brc1cccc(C2NCCc3c2[nH]c2ccccc32)c1 (configuration not stated)	400
O=[N+]([O-])c1cccc(C2NCCc3c2[nH]c2ccccc32)c1 (configuration not stated)	300

These molecules were tested against T1, Sodium/iodide cotransporter (assay: Inhibition of sodium iodide symporter in rat FRTL5 cells assessed as decrease in sodium iodide uptake after 60 mins by scintillation counting method).
Type: cell-based, FRTL-5

Compound	IC50 [nM]
[O-][Cl+3]([O-])([O-])O [PERCHLORATE]	140
F[B-](F)(F)F	750
N#CS [THIOCYANIC ACID]	14000
F[P-](F)(F)(F)(F)F.[Na+]	9
O=[N+]([O-])O	250000

Source: ChEMBL document CHEMBL3880389, “Heterocyclic compounds as inhibitors of the sodium iodide symporter” (2014)
